According to PMC9055851 (RSC Advances, 2020):

Target: Aβ42 peptide (Homo sapiens, UniProt P05067)
Experiment: ThT fluorescence assay for inhibition of Aβ42 fibrillation
Format: biochemical

Sequence of Aβ42 peptide (P05067 672-713): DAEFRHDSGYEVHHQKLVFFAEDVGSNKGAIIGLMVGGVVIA

SMILES: O=[N+]([O-])c1ccc(/N=N/c2ccc3nc(-c4ccccc4)c(I)c(-c4ccccc4)c3c2)cc1 [Compound 1d, (E)-3-Iodo-6-((4-nitrophenyl)diazenyl)-2,4-diphenylquinoline]
- % inhibition for Aβ aggregation (Aβ42 25 μM, compounds 25 μM, PBS, 37 °C, 24 h): 75.2 ± 3.0%
- inhibition at 25 µM (read-out: % inhibition for Aβ aggregation, Aβ42 25 μM, compounds 25 μM, PBS, 37 °C, 24 h): ~75%
